In PubChem BioAssay AID1963960 (Molecular Pharmacology Branch, DTP, NCI, 2024):

Test system: MDA-MB-468 spheroids with HUVEC/MSC, viability
Assay: Anticancer human tumor MDA-MB-468 cell line growth inhibition [PI3K];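 also: spheroids exposed to agents for seven days before readout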;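 as to viability, T/C: 100% = DMSO vehicle control viability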
Conditions: for IC50: curve of first compound; for viability, T/C: stronger effect = lower value
Source text: Combinatorial screen of targeted agents with the PI3K inhibitors inavolisib, alpelisib, duvelisib, and copanlisib in multi-cell type tumor spheroids
A high-throughput screen of multi-cell type tumor spheroids was designed to identify active combinations of targeted small molecules and PI3K pathway inhibitors. Complex spheroids include a stromal component modeled by human endothelial cells (HUVEC) and fibroblasts modeled by human mesenchymal stem cells (MSCs). The concentration ranges selected for each drug and investigational agent were based upon clinically achievable concentrations if the clinical Cmax of the agent was known.
Compounds. The drugs and investigational agents: inavolisib (NSC800729), alpelisib (NSC765974), duvelisib (NSC772469), copanlisib (NSC816437), ipatasertib (NSC767898), afuresertib (NSC778305), talazoparib (NSC767125), sapanisertib (NSC764658), selumetinib (NSC741078), tovorafenib (DAY101, NSC766906), vemurafenib (NSC761431), ravoxertinib (NSC781343), sotorasib (NSC818433), MRTX1133 (NSC 836407), abemaciclib (NSC 768073), palbociclib (NSC758247), venetoclax (NSC 766270), SY5609 (NSC837396), enzalutamide (NSC755605), and darolutamide (NSC825331), were obtained from the National Cancer Institute (NCI) Developmental Therapeutics Program Chemical Repository. The FDA-approved anticancer drug set is available from the NCI Developmental Therapeutics Program. […] The stock solutions were prepared in dimethyl sulfoxide (DMSO, Sigma-Aldrich, St. Louis, MO, cat. D2650) at 800-fold the tested concentration and stored at -70 degrees C prior to their use. All drugs and investigational agents were tested over a range starting from a high concentration at or near the clinical Cmax and decreasing in half-log increments. If the clinical Cmax for an agent had not been determined, the highest concentration tested was 10 microM.
Cell Culture. All cells were maintained in an incubator at 37 degrees C and 5% CO2 with 95% humidity. The PDC lines were cultured according to standard operating procedures established by the NCI PDMR (https://pdmr.cancer.gov/sops/default.htm). All PDCs were thawed and cultured in Matrigel-coated flasks prepared with a working solution of 1X Ham's F-12 nutrient mix, without supplementation (Invitrogen, Waltham, MA, cat. 11765054), 100 U/mL penicillin-streptomycin (Invitrogen, cat. 15140122), and 2.5% Matrigel (Corning Inc., Corning, NY, cat. 354248) for the first three passages. The 354836-022-R-J1-PDC, 475296-252-R-J1-PDC, and 997726-040-R-J2-PDC lines were cultured in 6A media, which includes advanced DMEM/F-12 (Thermo Fisher Scientific, cat. 12634028), 10 mM HEPES (Thermo Fisher Scientific, cat. 15630080), 1X GlutaMAX supplement (Thermo Fisher Scientific, cat. 35050061), 0.1 mg/mL primocin (InvivoGen, San Diego, CA, cat. ant-pm-2), 10% defined fetal bovine serum, heat inactivated (HyClone Laboratories Inc., Logan, UT, cat. SH30070.03HI), 50% L-WRN conditioned media (ATCC, cat. CRL-3276), 1.25 mM N-Acetyl-L-cysteine (Sigma-Aldrich, cat. A9165), 10 mM nicotinamide (Sigma-Aldrich, cat. N0636), 1X B-27 supplement (Thermo Fisher Scientific, cat. 17504044), 1X N-2 supplement (Thermo Fisher Scientific, cat. 17502048), and 10 microM Y-27632 dihydrochloride (Tocris Bioscience, Bristol, United Kingdom, cat. 1254). The 624824-186-R-J2-PDC line was cultured in 6C/Colon 1B media, which includes all 6A media components plus 50 ng/mL human EGF recombinant protein (Thermo Fisher Scientific, cat. PHG0311). […]

[1] = second compound 0.0316 µM, first compound 0.0316 µM
[2] = second compound 0.0316 µM, first compound 0.1 µM
[3] = second compound 0.0316 µM, first compound 0.316 µM
[4] = second compound 0.0316 µM, first compound 1 µM
[5] = second compound 0.0316 µM, first compound 3.16 µM
[6] = second compound 0.0316 µM, first compound 10 µM
[7] = second compound 0.1 µM, first compound 0.0316 µM
[8] = second compound 0.1 µM, first compound 0.1 µM
[9] = second compound 0.1 µM, first compound 0.316 µM
[10] = second compound 0.1 µM, first compound 1 µM
[11] = second compound 0.1 µM, first compound 3.16 µM
[12] = second compound 0.1 µM, first compound 10 µM
[13] = second compound 0.316 µM, first compound 0.0316 µM
[14] = second compound 0.316 µM, first compound 0.1 µM
[15] = second compound 0.316 µM, first compound 0.316 µM
[16] = second compound 0.316 µM, first compound 1 µM
[17] = second compound 0.316 µM, first compound 3.16 µM
[18] = second compound 0.316 µM, first compound 10 µM
[19] = second compound 1 µM, first compound 0.0316 µM
[20] = second compound 1 µM, first compound 0.1 µM
[21] = second compound 1 µM, first compound 0.316 µM
[22] = second compound 1 µM, first compound 1 µM
[23] = second compound 1 µM, first compound 3.16 µM
[24] = second compound 1 µM, first compound 10 µM

Molecule CNC(=O)c1ccc(N2C(=S)N(c3ccc(C#N)c(C(F)(F)F)c3)C(=O)C2(C)C)cc1F + CC(Nc1ccc2c(c1)OCCn1cc(N3C(=O)OCC3C(F)F)nc1-2)C(N)=O has an IC50 (second compound 0.00316 µM) of over 10 µM, an IC50 (second compound 0.01 µM) of over 10 µM and an IC50 (second compound 0.0316 µM) of over 10 µM. It also gave an IC50 (second compound 0.1 µM) of over 10 µM, an IC50 (second compound 0.316 µM) of over 10 µM and an IC50 (second compound 1 µM) of over 10 µM. For the same molecule, the viability, T/C (second compound 0.00316 µM, first compound 0.0316 µM) was 95.2%, the viability, T/C (second compound 0.00316 µM, first compound 0.1 µM) was 94.6% and the viability, T/C (second compound 0.00316 µM, first compound 0.316 µM) was 94.9%. It also gave a viability, T/C (second compound 0.00316 µM, first compound 1 µM) of 98.9%, a viability, T/C (second compound 0.00316 µM, first compound 3.16 µM) of 94.3% and a viability, T/C (second compound 0.00316 µM, first compound 10 µM) of 76.7%. The viability, T/C (second compound 0.01 µM, first compound 0.0316 µM) was 100%, the viability, T/C (second compound 0.01 µM, first compound 0.1 µM) was 107% and the viability, T/C (second compound 0.01 µM, first compound 0.316 µM) was 105%. The viability, T/C (second compound 0.01 µM, first compound 1 µM) was 107%, the viability, T/C (second compound 0.01 µM, first compound 3.16 µM) was 82.3% and the viability, T/C (second compound 0.01 µM, first compound 10 µM) was 76.5%. It also gave a viability, T/C [1] of 90.7%, a viability, T/C [2] of 105% and a viability, T/C [3] of 80.5%. The viability, T/C [4] was 98.5%, the viability, T/C [5] was 80.8% and the viability, T/C [6] was 62.2%. For the same molecule, the viability, T/C [7] was 85.9%, the viability, T/C [8] was 84.1% and the viability, T/C [9] was 83.5%. The viability, T/C [10] was 85.8%, the viability, T/C [11] was 82.1% and the viability, T/C [12] was 56.4%. The viability, T/C [13] was 95.6%, the viability, T/C [14] was 84.6% and the viability, T/C [15] was 75.8%. For the same molecule, the viability, T/C [16] was 95.2%, the viability, T/C [17] was 94% and the viability, T/C [18] was 57.1%. The viability, T/C [19] was 88%, the viability, T/C [20] was 76.4% and the viability, T/C [21] was 79.9%. For the same molecule, the viability, T/C [22] was 79.9%, the viability, T/C [23] was 73.3% and the viability, T/C [24] was 57.1%.
CC1(C)CCC(CN2CCN(c3ccc(C(=O)NS(=O)(=O)c4ccc(NCC5CCOCC5)c([N+](=O)[O-])c4)c(Oc4cnc5[nH]ccc5c4)c3)CC2)=C(c2ccc(Cl)cc2)C1 + Cc1nc(NC(=O)N2CCCC2C(N)=O)sc1-c1ccnc(C(C)(C)C(F)(F)F)c1 showed an IC50 (second compound 0.0316 µM) of 4.01 µM, an IC50 (second compound 0.1 µM) of 4.59 µM and an IC50 (second compound 0.316 µM) of 3.26 µM. For the same molecule, the IC50 (second compound 1 µM) was 3.8 µM, the IC50 (second compound 3.16 µM) was 2.12 µM and the IC50 (second compound 10 µM) was under 0.0316 µM. The viability, T/C [1] was 93.8%, the viability, T/C [2] was 110% and the viability, T/C [3] was 85.9%. For the same molecule, the viability, T/C [4] was 103%, the viability, T/C [5] was 61% and the viability, T/C [6] was 8.14%. It also gave a viability, T/C [7] of 85.3%, a viability, T/C [8] of 92.4% and a viability, T/C [9] of 80.2%. For the same molecule, the viability, T/C [10] was 104%, the viability, T/C [11] was 69.9% and the viability, T/C [12] was 8.59%. It also gave a viability, T/C [13] of 110%, a viability, T/C [14] of 105% and a viability, T/C [15] of 97.5%. It also gave a viability, T/C [16] of 88.7%, a viability, T/C [17] of 50.2% and a viability, T/C [18] of 7.04%. The viability, T/C [19] was 99.7%, the viability, T/C [20] was 72.3% and the viability, T/C [21] was 99.9%. The viability, T/C [22] was 85.4%, the viability, T/C [23] was 58.1% and the viability, T/C [24] was 7.9%. The viability, T/C (second compound 3.16 µM, first compound 0.0316 µM) was 77.8%, the viability, T/C (second compound 3.16 µM, first compound 0.1 µM) was 61.8% and the viability, T/C (second compound 3.16 µM, first compound 0.316 µM) was 54%. It also gave a viability, T/C (second compound 3.16 µM, first compound 1 µM) of 66.3%, a viability, T/C (second compound 3.16 µM, first compound 3.16 µM) of 43.3% and a viability, T/C (second compound 3.16 µM, first compound 10 µM) of 9.97%. It also gave a viability, T/C (second compound 10 µM, first compound 0.0316 µM) of 35.2%, a viability, T/C (second compound 10 µM, first compound 0.1 µM) of 27.1% and a viability, T/C (second compound 10 µM, first compound 0.316 µM) of 35.2%. The viability, T/C (second compound 10 µM, first compound 1 µM) was 32.4%, the viability, T/C (second compound 10 µM, first compound 3.16 µM) was 24.9% and the viability, T/C (second compound 10 µM, first compound 10 µM) was 8.18%.
